From patent US20230241226A1, “COMPOUNDS FOR TARGETED DEGRADATION OF CARRIER PROTEINS AND USES THEREOF” (CeMM - Forschungszentrum für Molekulare Medizin GmbH, priority 2019, published 2023)

How the values were obtained:
dTAG-HA SLCs = assay: dTAG-driven SLC degradation, statements across SLCs (temporal control, chemical rescue); format: cell-based, human; conditions: dTAG-tagged SLCs; FIGS. 5E and F
Procedure: (D)Chemical “rescue” of dTAG-driven degradation of SLCs. HAP1 cell lines expressing dTAG-HA SLC1A5 or dTAG-HA SLC38A9 were treated with 0.5 µM dTAG7 for 12 or 18 hours, respectively. These cells were also treated with chloroquine (CQ, 50 µM), bortezomib (bort., 1 µM), MG-132 (MG, 1 µM), MLN4924 (MLN, 1 µM), pomalidomide (poma., 10 µM), or bafilomycin A1 (bafi., 2.5 µM). SLC degradation was rescued by inhibiting CRL activity or the proteasome, but not by inhibiting the lysosome machinery.
Western blotting with antibodies against the HA-tag and the total protein mirrored the observed pattern.
(D) Chemical “rescue” of dTAG driven degradation. HAP1 cell lines expressing dTAGHA SLC2A3, 39A7, […], and MTCH2 were treated with 0.5 µM dTAG7 for 12 hours. A cell line expressing dTAG-HA SLC38A2 was treated with 0.5 µM dTAG7 for 18 hours. These cells were treated with MLN4924 (MLN, 1 µM), pomalidomide (poma., 10 µM), or bafilomycin A1 (bafi., 2.5 µM) to monitor the inhibition of degradation.
For immunoblotting, whole cell extracts were prepared using RIPA lysis buffer (25 mM Tris/HCl pH 7.6, 150 mM NaCl, 1% NP-40, 1% sodium deoxycholate, 0.1% SDS, EDTA-free protease inhibitor (Roche) and phosphatase inhibitors 2+3 (Sigma- Aldrich)). Cell extracts were incubated for 15 min on ice in 50 µL RIPA buffer. Lysates were cleared by centrifugation (20,000 g, 10 min, 4° C.). Protein extracts were quantified and normalized using the BCA assay (Thermo Scientific). Where indicated, cleared lysates where treated with the enzyme PNGase (NEB) to deglycosylate the proteins. Lämmli Sample Buffer 4x was added to protein extract samples without boiling. Cell lysates were run on SDS-polyacrylamide gel in tris-glycine running buffer and transferred to nitrocellulose membranes Amersham Protran 0.45 µm (GE Healthcare), according to standard methods. The membranes were incubated with the antibodies indicated below and visualized with horseradish peroxidase-conjugated secondary antibodies (described below) using the ECL Western blotting system (Thermo Scientific). The following antibodies were used: GAPDH (Santa Cruz, sc-365062), Actin (Cyoskeleton Inc., #AAN01), HA (Covance, cat #MMS-101R), HA (Cell Signaling, #3724), HA7-HRP (Sigma, H6533), HA (Roche, #11867423001), SLC9A1 (Santa Cruz, sc-136239), SLC2A1 (Cell Signaling, #12939), SLC38A1 (Cell Signaling, #36057). Secondary antibody for imaging goat anti-Rat IgG Alexa Fluor 488 (ThermoFisher, A11006). The following secondary antibodies were used for immunoblotting: goat anti-mouse HRP (115-035-003, Jackson ImmunoResearch) and goat anti-rabbit HRP (111-035-003, Jackson ImmunoResearch).
SLCs were ectopically expressed as fusions to a mutated FKBP domain, also known as the dTAG system. In brief, a dTAGed protein is amenable to degradation by specific chimeric degrader molecules (e.g. dTAG7/dTAG13) that simultaneously bind to the dTAG and the CRL4CRBN E3 ligase, inducing molecular proximity and ensuing degradation by the proteasome. Given that SLCs were expressed in all cellular compartments, the amenability of differentially located SLCs to targeted proteolysis was tested (FIG. 1A, upper graph). Each of the tested SLCs was stably expressed in HAP1 cells, and subcellular localization was assessed by immunofluorescence microscopy (FIG. 1B). In detail, SLCs located at the cell surface (SLC1A5, SLC38A1, SLC2A1, SLC2A3, SLC16A1, SLC4A4, SLC7A3), cell surface and vesicles (SLC38A2), lysosome (SLC38A9), Golgi (SLC35B2, SLC33A1), mitochondria (SLC25A26, SLC25A1, and MTCH2) and endoplasmic reticulum (SLC39A7, SLC30A9) were assayed. Cellular treatment with a specific degrader molecule (dTAG7 or dTAG13) led to identification of SLCs expressed at cell surface, endoplasmic reticulum and lysosome that were amenable to targeted degradation (FIGS. 1C, 5A). The dTAG could be placed on either N- or C-terminus of the SLC, if both face the cytoplasm (FIG. 5B), as exemplified by SLC2A3. […]

dTAG-HA SLC1A5 = target: T1, dTAG-HA SLC1A5 (Homo sapiens, UniProt Q15758+Q96SW2); assay: Targeted degradation of dTAG-tagged SLC1A5 (western blot); format: cell-based; conditions: 0.5 µM
T1 construct: expressed in transfected cells; also LOVO, SW620, CAKI, SW480
Procedure: (C)HAP1 cells expressing dTAG-HA SLC1A5, 2A3, 30A9, 35B2, MTCH2, and 33A1 were treated for 24 hours with 0.5 µM of dTAG7 or dTAG13, as indicated. HAP1 cells expressing dTAG-HA SLC2A1 and 16A1 were treated for 24 hrs with 0.5 µM of dTAG7. HAP1 cell lines expressing dTAG-HA SLC39A7, dTAG-HA SLC4A4, and SLC7A3-dTAG-HA were treated for 48 hrs with 0.5 µM of dTAG13.
SLC1A5, SLC2A1, SLC2A3, SLC16A1, SLC38A1, SLC38A2 were obtained as gateway-compatible pENTR/pDONR vectors from the Harvard PlasmID Repository. SLC39A7 was obtained from Dharmacon, GE Healthcare. The following vectors were synthesized by Genescript: SLC4A4, SLC7A3, SLC38A9, SLC25A1, SLC9A1, SLC9A2, SLC9A3, SLC9A4, SLC9A5, SLC9A6, SLC9A7, SLC9A8, and SLC9B2. […]
For immunoblotting, whole cell extracts were prepared using RIPA lysis buffer (25 mM Tris/HCl pH 7.6, 150 mM NaCl, 1% NP-40, 1% sodium deoxycholate, 0.1% SDS, EDTA-free protease inhibitor (Roche) and phosphatase inhibitors 2+3 (Sigma- Aldrich)). […] Protein extracts were quantified and normalized using the BCA assay (Thermo Scientific). […]
SLCs were ectopically expressed as fusions to a mutated FKBP domain, also known as the dTAG system. […]

T1 sequence (Q15758 with tags, fused parts or gaps): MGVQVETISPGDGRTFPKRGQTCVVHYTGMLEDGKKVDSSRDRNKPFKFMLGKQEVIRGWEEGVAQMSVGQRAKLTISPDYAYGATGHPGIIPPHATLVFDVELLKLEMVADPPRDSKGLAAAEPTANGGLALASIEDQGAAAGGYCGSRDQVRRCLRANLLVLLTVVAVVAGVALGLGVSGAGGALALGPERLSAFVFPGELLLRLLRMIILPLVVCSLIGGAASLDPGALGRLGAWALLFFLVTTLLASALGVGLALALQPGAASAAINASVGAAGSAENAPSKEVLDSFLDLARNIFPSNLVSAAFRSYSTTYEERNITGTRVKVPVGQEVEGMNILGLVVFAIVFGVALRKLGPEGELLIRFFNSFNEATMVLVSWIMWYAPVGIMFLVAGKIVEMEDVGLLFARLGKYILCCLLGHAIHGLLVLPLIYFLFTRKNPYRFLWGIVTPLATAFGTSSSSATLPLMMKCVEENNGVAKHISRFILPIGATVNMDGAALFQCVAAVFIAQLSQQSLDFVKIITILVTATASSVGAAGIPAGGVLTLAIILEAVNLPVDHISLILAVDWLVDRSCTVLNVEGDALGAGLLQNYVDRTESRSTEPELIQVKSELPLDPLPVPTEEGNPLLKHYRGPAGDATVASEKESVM
T1 sequence (Q96SW2 whole entry): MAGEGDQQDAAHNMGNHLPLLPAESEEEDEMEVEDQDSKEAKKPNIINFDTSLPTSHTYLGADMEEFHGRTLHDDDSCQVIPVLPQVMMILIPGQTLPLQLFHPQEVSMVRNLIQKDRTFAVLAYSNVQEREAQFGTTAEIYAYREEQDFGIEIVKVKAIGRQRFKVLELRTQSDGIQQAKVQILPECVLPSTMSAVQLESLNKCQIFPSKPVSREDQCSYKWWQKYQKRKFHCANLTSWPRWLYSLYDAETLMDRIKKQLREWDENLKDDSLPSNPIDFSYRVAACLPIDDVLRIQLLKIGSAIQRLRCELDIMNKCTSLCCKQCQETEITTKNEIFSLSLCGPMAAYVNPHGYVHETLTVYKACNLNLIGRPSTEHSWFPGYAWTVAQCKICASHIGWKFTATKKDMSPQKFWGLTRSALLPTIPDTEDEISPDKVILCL
T1 sequence (Q16531 whole entry partner): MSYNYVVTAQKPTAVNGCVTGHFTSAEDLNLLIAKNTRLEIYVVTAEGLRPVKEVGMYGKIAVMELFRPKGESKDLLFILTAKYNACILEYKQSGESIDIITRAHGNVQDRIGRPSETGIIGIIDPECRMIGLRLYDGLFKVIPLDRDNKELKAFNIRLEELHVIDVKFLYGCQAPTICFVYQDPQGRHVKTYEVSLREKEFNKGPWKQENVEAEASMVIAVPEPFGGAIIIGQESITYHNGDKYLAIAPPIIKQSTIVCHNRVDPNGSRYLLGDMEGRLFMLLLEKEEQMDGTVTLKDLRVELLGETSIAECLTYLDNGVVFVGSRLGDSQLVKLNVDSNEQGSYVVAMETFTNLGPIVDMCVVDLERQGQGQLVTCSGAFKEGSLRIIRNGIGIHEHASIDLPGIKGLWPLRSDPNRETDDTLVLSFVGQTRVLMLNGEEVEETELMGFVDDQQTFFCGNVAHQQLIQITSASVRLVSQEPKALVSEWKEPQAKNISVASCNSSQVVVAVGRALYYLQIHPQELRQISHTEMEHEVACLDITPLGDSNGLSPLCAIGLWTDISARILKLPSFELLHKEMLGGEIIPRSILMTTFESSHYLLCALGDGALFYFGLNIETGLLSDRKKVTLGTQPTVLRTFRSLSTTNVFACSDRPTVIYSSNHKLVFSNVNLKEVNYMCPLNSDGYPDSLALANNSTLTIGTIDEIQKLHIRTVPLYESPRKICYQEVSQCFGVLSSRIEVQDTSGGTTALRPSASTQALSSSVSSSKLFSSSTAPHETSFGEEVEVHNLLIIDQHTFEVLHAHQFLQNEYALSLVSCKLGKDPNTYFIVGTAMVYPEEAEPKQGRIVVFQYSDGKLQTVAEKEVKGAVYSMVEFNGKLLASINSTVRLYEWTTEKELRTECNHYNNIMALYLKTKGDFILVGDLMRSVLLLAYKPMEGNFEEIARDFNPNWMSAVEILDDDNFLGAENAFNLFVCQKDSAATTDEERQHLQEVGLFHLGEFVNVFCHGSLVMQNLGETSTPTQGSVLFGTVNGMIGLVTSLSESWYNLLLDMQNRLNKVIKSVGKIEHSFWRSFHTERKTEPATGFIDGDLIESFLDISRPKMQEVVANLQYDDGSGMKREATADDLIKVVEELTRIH

| Compound | time for which target degradation is maintained (dTAG-HA SLCs) | degradation of dTAG-HA SLC1A5 (dTAG-HA SLC1A5; LOVO, SW620, CAKI and SW480 cell lines, 48 hours) | temporal control of targeted SLC degradation (dTAG-HA SLCs) | initiation of degradation (time course) (dTAG-HA SLC1A5; HAP1, dTAG-HA SLC1A5) [h] |
| --- | --- | --- | --- | --- |
| CC[C@H](C(=O)N1CCCC[C@H]1C(=O)O[C@H](CCc1ccc(OC)c(OC)c1)c1ccccc1OCC(=O)NCCCCCCOc1cccc2c1C(=O)N(C1CCC(=O)NC1=O)C2=O)c1cc(OC)c(OC)c(OC)c1 (stereo partly shown) [dTAG13] | at least 72 h | degradation was observed | – | – |
| CC[C@H](C(=O)N1CCCC[C@H]1C(=O)O[C@H](CCc1ccc(OC)c(OC)c1)c1ccccc1OCC(=O)NCCCOCCOCCOCCCNC(=O)COc1cccc2c1C(=O)N(C1CCC(=O)NC1=O)C2=O)c1cc(OC)c(OC)c(OC)c1 (stereo partly shown) [dTAG7] | – | – | reversible degradation | ≤ 6 |
